According to US8524916B2, “Dithiinetetra(thio)carboximides” (Bayer CropScience AG, priority 2010, dated 2013):

How the values were obtained:
Type in all cases: in vivo
Venturia inaequalis = assay: Venturia test (apple)/protective; conditions: apple young plants, protective spray, application rate 250 ppm, evaluation 10 days after inoculation; 0% = control, 100% = no infection
Procedure: Venturia Test (Apple)/Protective [table] To produce an appropriate active ingredient formulation, 1 part by weight of active ingredient is mixed with the specified amounts of solvent and emulsifier, and the concentrate is diluted with water to the desired concentration. To test for protective activity, young plants are sprayed with the active ingredient formulation at the stated application rate. After the spray coating has dried on, the plants are inoculated with an aqueous conidia suspension of the apple scab pathogen Venturia inaequalis and then remain in an incubation cabin at approx. 20° C. and 100% relative air humidity for 1 day. The plants are then placed in a greenhouse at about 21° C. and a relative air humidity of approx. 90%.

Alternaria solani = assay: Alternaria test (tomato)/protective; conditions: tomato young plants, protective spray, application rate 250 ppm, evaluation 3 days after inoculation; 0% = control, 100% = no infection
Procedure: Alternaria Test (Tomato)/Protective [table] To produce an appropriate active ingredient formulation, 1 part by weight of active ingredient is mixed with the specified amounts of solvent and emulsifier, and the concentrate is diluted with water to the desired concentration. To test for protective activity, young plants are sprayed with the active ingredient formulation at the stated application rate. After the spray coating has dried on, the plants are inoculated with an aqueous spore suspension of Alternaria solani. The plants are then placed in an incubation cabin at approx. 20° C. and 100% relative air humidity.

Phytophthora infestans = conditions: tomato young plants, protective spray, application rate 250 ppm, evaluation 3 days after inoculation; 0% = control, 100% = no infection
Plasmopara viticola = assay: Plasmopara test (grapevine)/protective; conditions: grapevine young plants, protective spray, application rate 250 ppm, evaluation 6 days after inoculation; 0% = control, 100% = no infection
Procedure: Plasmopara Test (Grapevine)/Protective [table] To produce an appropriate active ingredient formulation, 1 part by weight of active ingredient is mixed with the specified amounts of solvent and emulsifier, and the concentrate is diluted with water to the desired concentration. To test for protective activity, young plants are sprayed with the active ingredient formulation at the stated application rate. After the spray coating has dried on, the plants are inoculated with an aqueous spore suspension of Plasmopara viticola and then remain in an incubation cabin at approx. 20° C. and 100% relative air humidity for 1 day. Subsequently, the plants are placed in a greenhouse at approx. 21° C. and approx. 90% air humidity for 4 days. The plants are then moistened and placed in an incubation cabin for 1 day.

| Structure (SMILES) | Efficacy (%) (Venturia inaequalis) | Efficacy (%) (Alternaria solani) | other results |
| --- | --- | --- | --- |
| Cn1c(=O)c2sc3c(=S)n(C)c(=O)c3sc2c1=S [drawing 25] | 71% |  |  |
| Cn1c(=O)c2sc3c(=O)n(C)c(=S)c3sc2c1=O [drawing 26] |  | 95% |  |
| Cn1c(=O)c2sc3c(=S)n(C)c(=O)c3sc2c1=S [drawing 27] |  | 76% |  |
| Cn1c(=O)c2sc3c(=O)n(C)c(=S)c3sc2c1=O [drawing 22] |  |  | Efficacy (%) (Phytophthora infestans): 72% |
| Cn1c(=O)c2sc3c(=O)n(C)c(=S)c3sc2c1=O [drawing 23] |  |  | Efficacy (%) (Plasmopara viticola): 83% |
| Cn1c(=O)c2sc3c(=O)n(C)c(=S)c3sc2c1=O [drawing 24] | 99% |  |  |
